From US8524809B2, “Low odor compositions and methods to attain low odor compositions” (Rohm and Haas Company, priority 2010, dated 2013)

Tests used:
CALBL = target: T1, CALBL (Moesziomyces antarcticus, UniProt P41365); assay: Small molecule inhibitors: EA content of latex containing CALBL; type: biochemical; settings: for Inhibition of CALBL (in words): inhibitor 1.0%
T1 construct: purchased Novozymes, Bagsvaerd, Denmark Novozym CALB L
T1 sequence (P41365 26-342): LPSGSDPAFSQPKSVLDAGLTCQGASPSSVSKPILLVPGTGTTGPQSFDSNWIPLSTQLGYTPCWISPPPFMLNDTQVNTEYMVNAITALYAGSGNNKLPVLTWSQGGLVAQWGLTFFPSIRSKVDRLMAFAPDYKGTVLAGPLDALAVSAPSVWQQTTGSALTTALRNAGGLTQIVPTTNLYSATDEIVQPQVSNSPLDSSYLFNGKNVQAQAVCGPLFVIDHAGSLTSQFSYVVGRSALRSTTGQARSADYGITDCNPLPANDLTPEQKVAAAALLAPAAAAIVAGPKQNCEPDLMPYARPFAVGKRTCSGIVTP
Protocol: (§1) In another embodiment, deactivation of the carboxylesterase enzyme may be achieved by the addition of a small molecule inhibitor, as shown for CALBL and N51032 in Tables 13 and 14, below. […] The small molecule inhibitor and CALBL were added simultaneously at the time t=0. In the following tables, the potential small molecule inhibitors are as follows: […]

N51032 = assay: Small molecule inhibitors: EA content of latex containing N51032; type: biochemical
Protocol: as §1

[1] = Nucleophilic reagents: aldehyde content in vinyl acetate-acrylic latex; settings: Rovace 9900 pre-treated 1 week with 50 ppm N51032; reagent 50 ppm, 55° C. 2 hours, then 1 week RT
Protocol: The latex samples were first treated with a carboxylesterase enzyme (50 ppm of N51032) for 1 week to remove residual esters and also to convert residual vinyl acetate to acetaldehyde (the esterase produces vinyl alcohol, which rearranges to form acetaldehyde). Each sample was then stirred at 55° C. for 2 hours with the reagent shown below in Table 26 (added at a level of 50 ppm), and then left at room temperature for 1 week before evaluating levels of aldehyde in the headspace composition (GC-MS, 33° C.).

[2] = Esterase and nucleophilic reagent, larger scale vinyl acetate-acrylic latex; settings: VAc-acrylic latex, 50 ppm N51032 + 50 ppm reagent
Protocol: The combined effect of carboxylesterase (50 ppm N51032) and nucleophilic reagent (50 ppm in each case) was evaluated in a larger scale vinyl acetate-acrylic latex sample, Table 27, below. The combined addition was made into a 1 gallon reaction vessel, with stirring, after the polymer synthesis and chase, and while the contents were at 50° C. The contents were then allowed to cool and headspace concentrations were analyzed after 1 day at room temperature, and after 5 days at room temperature.

[3] = AC-261 latex, CALBL 60 ppm, inhibitor 1.0% added simultaneously (Control: none), 0 hr
[4] = AC-261 latex, CALBL 60 ppm, inhibitor 1.0% added simultaneously (Control: none), 24 hr
[5] = AC-261 latex, CALBL 60 ppm, inhibitor 1.0% added simultaneously (Control: none), 72 hr
[6] = AC-261 latex, CALBL 60 ppm, inhibitor 1.0% added simultaneously (Control: none), 168 hr
[7] = CALBL 6 ppm, inhibitor 0.001%, 0 hr
[8] = CALBL 6 ppm, inhibitor 0.001%, 120 hr
[9] = CALBL 6 ppm, inhibitor 0.001%, 168 hr
[10] = CALBL 6 ppm, inhibitor 0.001%, 384 hr
[11] = CALBL 6 ppm, inhibitor 0.001%, 480 hr
[12] = CALBL 6 ppm, inhibitor 0.01%, 0 hr
[13] = CALBL 6 ppm, inhibitor 0.01%, 120 hr
[14] = CALBL 6 ppm, inhibitor 0.01%, 168 hr
[15] = CALBL 6 ppm, inhibitor 0.01%, 384 hr
[16] = CALBL 6 ppm, inhibitor 0.01%, 480 hr
[17] = CALBL 6 ppm, inhibitor 0.1%, 0 hr
[18] = CALBL 6 ppm, inhibitor 0.1%, 120 hr
[19] = CALBL 6 ppm, inhibitor 0.1%, 168 hr
[20] = CALBL 6 ppm, inhibitor 0.1%, 384 hr
[21] = CALBL 6 ppm, inhibitor 0.1%, 480 hr
[22] = AC-261 latex, N51032 50 ppm, inhibitor 1% added simultaneously (Control: none), 0 hr
[23] = AC-261 latex, N51032 50 ppm, inhibitor 1% added simultaneously (Control: none), 24 hr
[24] = AC-261 latex, N51032 50 ppm, inhibitor 1% added simultaneously (Control: none), 72 hr
[25] = AC-261 latex, N51032 50 ppm, inhibitor 1% added simultaneously (Control: none), 168 hr
[26] = N51032 5 ppm, inhibitor 0.001%, 0 hr
[27] = N51032 5 ppm, inhibitor 0.001%, 120 hr
[28] = N51032 5 ppm, inhibitor 0.001%, 168 hr
[29] = N51032 5 ppm, inhibitor 0.001%, 384 hr
[30] = N51032 5 ppm, inhibitor 0.001%, 480 hr
[31] = N51032 5 ppm, inhibitor 0.01%, 0 hr
[32] = N51032 5 ppm, inhibitor 0.01%, 120 hr
[33] = N51032 5 ppm, inhibitor 0.01%, 168 hr
[34] = N51032 5 ppm, inhibitor 0.01%, 384 hr
[35] = N51032 5 ppm, inhibitor 0.01%, 480 hr
[36] = N51032 5 ppm, inhibitor 0.1%, 0 hr
[37] = N51032 5 ppm, inhibitor 0.1%, 120 hr
[38] = N51032 5 ppm, inhibitor 0.1%, 168 hr
[39] = N51032 5 ppm, inhibitor 0.1%, 384 hr
[40] = N51032 5 ppm, inhibitor 0.1%, 480 hr

CC(C)CB(O)O [2MPB, (2-methylpropyl) boronic acid]
EA content (CALBL; [3]): 105 ppm
EA content (CALBL; [4]): 95 ppm
EA content (CALBL; [5]): 102 ppm
EA content (CALBL; [6]): 104 ppm
EA content (CALBL; [7]): 44
EA content (CALBL; [8]): 32
EA content (CALBL; [9]): 23
EA content (CALBL; [10]): 10
EA content (CALBL; [11]): 8
EA content (CALBL; [12]): 43
EA content (CALBL; [13]): 28
EA content (CALBL; [14]): 24
EA content (CALBL; [15]): 13
EA content (CALBL; [16]): 11
EA content (CALBL; [17]): 43
EA content (CALBL; [18]): 34
EA content (CALBL; [19]): 25
EA content (CALBL; [20]): 15
EA content (CALBL; [21]): 13
Inhibition of CALBL (in words) (CALBL; CALBL 60 ppm): effective in inhibiting the carboxylesterase enzyme
EA content (N51032; [22]): 117 ppm
EA content (N51032; [23]): 92 ppm
EA content (N51032; [24]): 99 ppm
EA content (N51032; [25]): 79 ppm
EA content (N51032; [26]): 42 ppm
EA content (N51032; [27]): 24 ppm
EA content (N51032; [28]): 22 ppm
EA content (N51032; [29]): 8 ppm
EA content (N51032; [30]): 6 ppm
EA content (N51032; [31]): 37 ppm
EA content (N51032; [32]): 25 ppm
EA content (N51032; [33]): 19 ppm
EA content (N51032; [34]): 6 ppm
EA content (N51032; [35]): 5 ppm
EA content (N51032; [36]): 43 ppm
EA content (N51032; [37]): 34 ppm
EA content (N51032; [38]): 27 ppm
EA content (N51032; [39]): 22 ppm
EA content (N51032; [40]): 20 ppm

NNc1ccc(C(=O)O)cc1 [4HB, 4-hydrazino benzoic acid]
Acetaldehyde Headspace Concentration [1]: 14 ppm
Acetone Headspace Concentration [1]: 247 ppm
Ethanol Headspace Concentration [1]: 20 ppm
butanal Headspace Concentration [1]: 0 ppm
l-butanol Headspace Concentration [1]: 48 ppm
t-butanol Headspace Concentration [1]: 258 ppm

O=C1CC(=O)NC(=O)N1 [B, barbituric acid]
Acetaldehyde Headspace Concentration [1]: 0 ppm
Acetone Headspace Concentration [1]: 287 ppm
Ethanol Headspace Concentration [1]: 26 ppm
butanal Headspace Concentration [1]: 0 ppm
l-butanol Headspace Concentration [1]: 53 ppm
t-butanol Headspace Concentration [1]: 300 ppm
Acetaldehyde Headspace Concentration ([2]; 1 Day): 237 ppm
Acetone Headspace Concentration ([2]; 1 Day): 392 ppm
Butyl acetate Headspace Concentration ([2]; 1 Day): 1 ppm
Ethanol Headspace Concentration ([2]; 1 Day): 10 ppm
Vinyl acetate Headspace Concentration ([2]; 1 Day): 0 ppm
butanal Headspace Concentration ([2]; 1 Day): 0.4 ppm
l-butanol Headspace Concentration ([2]; 1 Day): 18 ppm
t-butanol Headspace Concentration ([2]; 1 Day): 265 ppm
Acetaldehyde Headspace Concentration ([2]; 5 Days): 140 ppm
Acetone Headspace Concentration ([2]; 5 Days): 418 ppm
Butyl acetate Headspace Concentration ([2]; 5 Days): 1 ppm
Ethanol Headspace Concentration ([2]; 5 Days): 23 ppm
Vinyl acetate Headspace Concentration ([2]; 5 Days): 0 ppm
butanal Headspace Concentration ([2]; 5 Days): 0.6 ppm
l-butanol Headspace Concentration ([2]; 5 Days): 21 ppm
t-butanol Headspace Concentration ([2]; 5 Days): 285 ppm

CC(C)(C)CB(O)O [NPB, Neopentylboronic acid]
EA content (CALBL; [3]): 107 ppm
EA content (CALBL; [4]): 21 ppm
EA content (CALBL; [5]): 0 ppm
EA content (CALBL; [6]): 0 ppm
Inhibition of CALBL (in words) (CALBL; CALBL 60 ppm): completely ineffective as an inhibitor of CALBL
EA content (N51032; [22]): 116 ppm
EA content (N51032; [23]): 49 ppm
EA content (N51032; [24]): 30 ppm
EA content (N51032; [25]): 6 ppm

OB(O)c1ccccc1 [PBA, phenylboronic acid]
EA content (CALBL; [3]): 108 ppm
EA content (CALBL; [4]): 103 ppm
EA content (CALBL; [5]): 116 ppm
EA content (CALBL; [6]): 108 ppm
EA content (CALBL; [7]): 48
EA content (CALBL; [8]): 30
EA content (CALBL; [9]): 25
EA content (CALBL; [10]): 11
EA content (CALBL; [11]): 9
EA content (CALBL; [12]): 44
EA content (CALBL; [13]): 32
EA content (CALBL; [14]): 26
EA content (CALBL; [15]): 15
EA content (CALBL; [16]): 15
EA content (CALBL; [17]): 39
EA content (CALBL; [18]): 35
EA content (CALBL; [19]): 35
EA content (CALBL; [20]): 29
EA content (CALBL; [21]): 29
Inhibition of CALBL (in words) (CALBL; CALBL 60 ppm): effective in inhibiting the carboxylesterase enzyme
EA content (N51032; [22]): 116 ppm
EA content (N51032; [23]): 116 ppm
EA content (N51032; [24]): 111 ppm
EA content (N51032; [25]): 117 ppm
EA content (N51032; [26]): 46 ppm
EA content (N51032; [27]): 36 ppm
EA content (N51032; [28]): 34 ppm
EA content (N51032; [29]): 22 ppm
EA content (N51032; [30]): 19 ppm
EA content (N51032; [31]): 45 ppm
EA content (N51032; [32]): 41 ppm
EA content (N51032; [33]): 39 ppm
EA content (N51032; [34]): 34 ppm
EA content (N51032; [35]): 34 ppm
EA content (N51032; [36]): 46 ppm
EA content (N51032; [37]): 34 ppm
EA content (N51032; [38]): 41 ppm
EA content (N51032; [39]): 38 ppm
EA content (N51032; [40]): 39 ppm
Inhibition of N51032 (in words) (N51032; inhibitor 1%, N51032 50 ppm): effective in inhibiting the carboxylesterase enzyme

OB(O)C1CCCCC1 [CBA, cyclohexylboronic acid]
EA content (CALBL; [3]): 102 ppm
EA content (CALBL; [4]): 70 ppm
EA content (CALBL; [5]): 55 ppm
EA content (CALBL; [6]): 24 ppm
Inhibition of CALBL (in words) (CALBL; CALBL 60 ppm): some ability to inhibit the CALBL enzyme
EA content (N51032; [22]): 117 ppm
EA content (N51032; [23]): 96 ppm
EA content (N51032; [24]): 109 ppm
EA content (N51032; [25]): 79 ppm

Nc1ccc(CO)cc1 [4ABA, 4-aminobenzyl alcohol]
Acetaldehyde Headspace Concentration [1]: 151 ppm
Acetone Headspace Concentration [1]: 245 ppm
Ethanol Headspace Concentration [1]: 20 ppm
butanal Headspace Concentration [1]: 1 ppm
l-butanol Headspace Concentration [1]: 48 ppm
t-butanol Headspace Concentration [1]: 257 ppm

CCCCCCCCCCS(=O)(=O)[O-].[Na+] [S-1-DS, Sodium 1-decane-sulfonate]
EA content (CALBL; [3]): 114 ppm
EA content (CALBL; [4]): 73 ppm
EA content (CALBL; [5]): 36 ppm
EA content (CALBL; [6]): 17 ppm
Inhibition of CALBL (in words) (CALBL; CALBL 60 ppm): some ability to inhibit the CALBL enzyme
EA content (N51032; [22]): 115 ppm
EA content (N51032; [23]): 73 ppm
EA content (N51032; [24]): 79 ppm
EA content (N51032; [25]): 77 ppm

Nc1ccc(N)cc1 [PPD, p-phenylene diamine]
Acetaldehyde Headspace Concentration [1]: 0 ppm
Acetone Headspace Concentration [1]: 279 ppm
Ethanol Headspace Concentration [1]: 25 ppm
butanal Headspace Concentration [1]: 0 ppm
l-butanol Headspace Concentration [1]: 58 ppm
t-butanol Headspace Concentration [1]: 304 ppm

NCCNCCNCCN [TET, triethylene tetramine]
Acetaldehyde Headspace Concentration [1]: 42 ppm
Acetone Headspace Concentration [1]: 262 ppm
Ethanol Headspace Concentration [1]: 23 ppm
butanal Headspace Concentration [1]: 1 ppm
l-butanol Headspace Concentration [1]: 64 ppm
t-butanol Headspace Concentration [1]: 278 ppm
